According to patent US20050026846A1, “Pharmaceutical compositions comprising alkanoyl L-carnitine in combination with a statine for treating pathologies brought about by an altered lipid metabolism” (SIGMA-TAU INDUSTRIE FARMACEUTICHE RIUNITE S.p.A., priority 1997, published 2005):

Legend:
Assay type in all cases: in vivo, human
[1] = test system: hypertriglyceridaemic patients; assay: Clinical study: triglyceridaemia (blood-chemistry tests); details: for Triglyceridaemia, statistical significance (p) vs baseline: propionyl L-carnitine 2 g/day, Student's t-test for paired data
Experimental: (§1) Eight hypertriglyceridaemic patients (3 males and 5 females) were recruited for the study, with a mean age of 65 years (range: 52-70), presenting mean triglyceridaemia values of 213.0±21.18 mg % and mean cholesterolaemia values of 158.1±25.90 mg %, who were put on a dietary regimen consisting in 40 Kcal/kg, 1.2 g/kg proteins and 1.4 g/kg lipids daily.
(§2) After baseline determinations of cholesterolaemia, triglyceridaemia, bilirubinaemia, alkaline phosphatase, protidaemia, GOT and GPT, all subjects took propionyl L-carnitine 2 g/day os for 60 days, which was discontinued on day 61 for a 30-day wash-out period. Simvastatin was then administered at a dose of 10 mg/day os in the evening for 30 days, followed by a further 30-day washout period and then by another 30-day period during which propionyl L-carnitine 1.5 g/day os and simvastatin 5 mg/day os were administered simultaneously.
(§3) Blood-chemistry tests were performed before and after each course of drug treatment and at the end of each wash-out period. The data obtained were subjected to statistical analysis using Student's t-test for paired data (Table 1).

[2] = test system: hypertriglyceridaemic patients; assay: Clinical study: cholesterolaemia (blood-chemistry tests); details: for Cholesterolaemia, statistical significance (p) vs baseline: propionyl L-carnitine 2 g/day, Student's t-test for paired data
Experimental: as §1, §2, §3

[3] = test system: hypertriglyceridaemic patients; assay: Clinical study: side effects; details: propionyl L-carnitine 2 g/day or 1.5 g/day os; simvastatin 10 or 5 mg/day os
Experimental: as §1, §2
All patients completed the study according to the procedures described. […] During the wash-out period the mean triglyceridaemia value recorded was 202.5±9.71 mg %, whereas the mean baseline value was 213.0±21.1 1 mg % (Table 2).

[4] = 30 days os, simvastatin 10 mg/day, combination 1.5 g/day + 5 mg/day

| Compound | Triglyceridaemia, statistical significance (p) vs baseline [1, 4] | Triglyceridaemia, statistical significance (p) vs baseline ([1]; 30 days os, simvastatin 10 mg/day, combination 1.5 g/day + 5 mg/day, listed as Propionyl L-carnitine) | Triglyceridaemia, statistical significance (p) vs baseline ([1]; 60 days os) | Triglyceridaemia, statistical significance (p) vs baseline ([1]; 60 days os, listed as Propionyl L-carnitine) | triglyceridaemia after treatment, significance (p): propionyl L-carnitine vs simvastatin ([1]; each administered alone) | Cholesterolaemia, statistical significance (p) vs baseline [2, 4] | Cholesterolaemia, statistical significance (p) vs baseline ([2]; 60 days os) | side effects attributable to the drugs during the study period [3] | mean post-treatment triglyceride value ([1]; after 30 days os, simvastatin 10 mg/day, or propionyl L-carnitine 1.5 g/day + simvastatin 5 mg/day, baseline 213.0±21.18 mg %, 8 patients) [mg %] | mean cholesterolaemia value after treatment ([2]; after 30 days os, simvastatin 10 mg/day, or propionyl L-carnitine 1.5 g/day + simvastatin 5 mg/day, baseline 158.12±25.90 mg %, 8 patients) [mg %] |
| --- | --- | --- | --- | --- | --- | --- | --- | --- | --- | --- |
| CCC(=O)O[C@H](CC(=O)[O-])C[N+](C)(C)C [propionyl L-carnitine] | < 0.3671 | p < 0.3671 | < 0.0272 | p < 0.0272 | < 0.167 | p < 0.4795 | p < 0.0198 | no side effects | – | – |
| CCC(C)(C)C(=O)O[C@H]1C[C@@H](C)C=C2C=C[C@H](C)[C@H](CC[C@@H]3C[C@@H](O)CC(=O)O3)[C@H]21 [simvastatin, reference compound] | – | – | – | – | – | p < 0.0585 | – | – | 193.8±22.63 | 156.75±22.82 |
